Experimental data as given in paper PMC9271751, “Synthesis and Evaluation of Coumarin-Chalcone Derivatives as α-Glucosidase Inhibitors” (Frontiers in Chemistry, 2022).
Read-outs that look alike come from different tables or passages of the source.

Legend:
[1] = target: T1, α-Glucosidase from Saccharomyces cerevisiae (EC 3.2.1.20) (Saccharomyces cerevisiae, UniProt P53341); assay: biochemical
T1 construct: purchased Sigma-Aldrich
Description: Ethyl acetoacetate, salicylaldehyde and absolute ethanol were analytical pure grade and purchased from Aladdin (Shanghai) Reagent Co., Ltd. Piperidine; glacial acetic acid, petroleum ether and ethyl acetate were supplied by Titan (Shanghai) Technology Co., Ltd.; α-Glucosidase from Saccharomyces cerevisiae (EC 3.2.1.20), 4-nitrophenyl-α-D-[…] (p-NPG), and Dimethyl sulfoxide (DMSO) were supported by Sigma-Aldrich (United States) Chemical Co., Ltd. Melting points were tested on a micro melting-point instrument. ^1H NMR spectra were measured (CDCl3) by Bruker DPX-500 MHz AVANCE with TMS as an internal standard. Mass spectroscopy was performed on a (LCQTM). The absorbance was recorded by a micro-plate reader.
The α-glucosidase inhibitory activity assay of coumarin-chalcone derivatives 3 (a∼v) was conducted using p-NPG as a substrate. ([Pogaku et al., 2019]; [Saeedi et al., 2019]; [Xu et al., 2019]). 10 μl of the test compound and 10 μl of the enzyme (final concentration 0.1 U/ml) were added to 130 μl of PBS (0.1 M phosphate, pH 6.8), and incubated at 37°C for 10 min. Then p-NPG (final concentration 0.25 mM) was added and the absorbance change was measured by a micro-plate reader at 405 nm. All experiments were assayed four times. The percentage of inhibition was obtained using the formula: Inhibition (%) = […] × 100%, where OD1 and OD0 represent the absorbance value of the experimental group and the blank group respectively. […] The IC50 value of each compound was obtained from the fitting curve of inhibition vs. compound concentration.

[2] = target: T1, α-Glucosidase from Saccharomyces cerevisiae (EC 3.2.1.20); assay: α-Glucosidase inhibition kinetics (v vs. enzyme concentration, Lineweaver-Burk plots); assay type: biochemical; conditions: for Inhibition mechanism (inhibition type): Lineweaver-Burk double reciprocal plot, p-NPG 0.25-1 mM; for Inhibition mechanism (inhibition type) / Reversibility of inhibition: compound 0, 25, 30, 40 μM; for KIS: enzyme-substrate complex, secondary plot of intercept vs. compound concentration; for Reversibility of inhibition: plots of v vs. α-glucosidase concentration (0.075-0.15 U/mL)
Text: Generally, according to the type of inhibition, enzyme inhibitors can be divided into reversible inhibitors and irreversible inhibitors ([Abuelizz et al., 2019]). In order to obtain the principle of the combination of enzyme inhibitors and enzymes, it is necessary to study the interaction between enzyme inhibitors and enzymes. Compounds 3j, 3q and 3t with strongest inhibitory activity were chosen for the research of inhibition kinetics against α-glucosidase (the inhibitory mechanism analysis of compound 3t was shown in Figure 2 and figures for the inhibitory mechanism analysis of compounds 3j and 3q have been shown in the supporting information). A series of plots of enzymatic reaction rate (v) vs. α-glucosidase concentration in the presence of inhibitors were generated to identify the type of inhibition that is listed in Figure 1.
The inhibit type of inhibitors on α-glucosidase include four types, named competitive inhibition, non-competitive inhibition, mixed inhibition, and anti-competitive inhibition ([Abuelizz et al., 2019]). The inhibition modes of compounds 3j, 3q and 3t against α-glucosidase were investigated using Lineweaver-Burk double reciprocal plot.
The type of inhibition was identified by the plots of enzymatic reaction rate (V) vs. α-glucosidase concentration. The test method was similar to the above enzyme activity assay. In the presence of different concentrations of compounds 3j, 3q and 3t, respectively (0, 25, 30, and 40 μM), the absorbance change was detected under different concentrations of α-glucosidase (0.075, 0.1, 0.125, and 0.15 U/mL).
The inhibition mode was also detected using a similar method to that described above. In the presence of different concentrations of compounds 3j, 3q and 3t, respectively (0, 25, 30 and 40 μM), the absorbance change was measured under different concentrations of p-NPG (0.25, 0.5, 0.75, 1 mM). The inhibition mode of the inhibitor was obtianed using Lineweaver-Burk plots. The constant KI was obtained by secondary plots of the derivatives concentration (I) vs. Slope, constant KIS was obtained by secondary plots of the derivatives concentration (I) vs. Intercept.

[3] = p-NPG 0.25 mM, enzyme 0.1 U/ml, PBS pH 6.8, 37°C, read-out: IC50, α-glucosidase inhibitory activity

T1 sequence (P53341 whole entry): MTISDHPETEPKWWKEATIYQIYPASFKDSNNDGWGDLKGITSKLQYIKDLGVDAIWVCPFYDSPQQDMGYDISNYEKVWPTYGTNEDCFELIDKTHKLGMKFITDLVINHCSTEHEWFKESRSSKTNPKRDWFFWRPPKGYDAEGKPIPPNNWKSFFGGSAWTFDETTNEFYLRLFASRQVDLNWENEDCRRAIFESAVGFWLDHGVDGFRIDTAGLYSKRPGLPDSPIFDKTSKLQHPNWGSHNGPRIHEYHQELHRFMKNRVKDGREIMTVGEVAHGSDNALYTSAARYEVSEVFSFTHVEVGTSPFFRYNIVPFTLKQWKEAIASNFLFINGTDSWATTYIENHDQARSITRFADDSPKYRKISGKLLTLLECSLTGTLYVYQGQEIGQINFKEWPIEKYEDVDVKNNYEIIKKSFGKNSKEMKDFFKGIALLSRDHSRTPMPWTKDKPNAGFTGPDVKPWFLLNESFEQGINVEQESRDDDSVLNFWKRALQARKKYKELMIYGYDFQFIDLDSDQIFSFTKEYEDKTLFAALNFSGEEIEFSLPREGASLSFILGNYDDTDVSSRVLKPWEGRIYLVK

Row | IC50 [1, 3] | Compound | IC50 [1] | other results
1 |  | O=C(/C=C/c1ccccc1)c1cc2ccccc2oc1=O [Compound 3a, (E)-3-cinnamoyl-2H-chromen-2-one] | 125.3 ± 1.18 µM | 
2 | 95.2 ± 1.35 µM | Cc1ccc(/C=C/C(=O)c2cc3ccccc3oc2=O)cc1 [Compound 3b, (E)-3-[3-(p-tolyl)acryloyl]-2H-chromen-2-one] |  | 
3 | 60.9 ± 2.74 µM | COc1ccccc1/C=C/C(=O)c1cc2ccccc2oc1=O [Compound 3c, (E)-3-[3-(2-methoxyphenyl)acryloyl]-2H-chromen-2-one] |  | 
4 | 96.4 ± 1.37 µM | COc1cccc(/C=C/C(=O)c2cc3ccccc3oc2=O)c1 [Compound 3d, (E)-3-[3-(3-methoxyphenyl)acryloyl]-2H-chromen-2-one] |  | 
5 | 105 ± 1.98 µM | COc1ccc(/C=C/C(=O)c2cc3ccccc3oc2=O)cc1 [Compound 3e, (E)-3-[3-(4-methoxyphenyl)acryloyl]-2H-chromen-2-one] |  | 
6 | 75.5 ± 0.98 µM | CSc1ccc(/C=C/C(=O)c2cc3ccccc3oc2=O)cc1 [Compound 3f, (E)-3-{3-[4-(methylthio)phenyl]acryloyl}-2H-chromen-2-one] |  | 
7 |  | O=C(/C=C/c1ccccc1F)c1cc2ccccc2oc1=O [Compound 3g, (E)-3-[3-(2-fluorophenyl)acryloyl]-2H-chromen-2-one] | 48.4 ± 1.42 µM | 
8 |  | O=C(/C=C/c1cccc(F)c1)c1cc2ccccc2oc1=O [Compound 3h, (E)-3-[3-(3-fluorophenyl)acryloyl]-2H-chromen-2-one] | 45.7 ± 1.28 µM | 
9 |  | O=C(/C=C/c1ccc(F)cc1)c1cc2ccccc2oc1=O [Compound 3i, (E)-3-[3-(4-fluorophenyl)acryloyl]-2H-chromen-2-one] | 35.68 ± 0.28 µM | 
10 | 49.7 ± 3.28 µM | O=C(/C=C/c1ccc(F)c(F)c1)c1cc2ccccc2oc1=O [Compound 3k, (E)-3-[3-(3,4-difluorophenyl)acryloyl]-2H-chromen-2-one] |  | 
11 | 71.5 ± 2.14 µM | O=C(/C=C/c1ccccc1C(F)(F)F)c1cc2ccccc2oc1=O [Compound 3l, (E)-3-{3-[2-(trifluoromethyl)phenyl]acryloyl}-2H-chromen-2-one] |  | 
12 | 64.7 ± 1.82 µM | O=C(/C=C/c1cccc(C(F)(F)F)c1)c1cc2ccccc2oc1=O [Compound 3m, (E)-3-{3-[3-(trifluoromethyl)phenyl]acryloyl}-2H-chromen-2-one] |  | 
13 | 53.6 ± 1.95 µM | O=C(/C=C/c1ccc(C(F)(F)F)cc1)c1cc2ccccc2oc1=O [Compound 3n, (E)-3-{3-[4-(trifluoromethyl)phenyl]acryloyl}-2H-chromen-2-one] |  | 
14 |  | O=C(/C=C/c1ccccc1Cl)c1cc2ccccc2oc1=O [Compound 3o, (E)-3-[3-(2-chlorophenyl)acryloyl]-2H-chromen-2-one] | 59.7 ± 1.73 µM | 
15 |  | O=C(/C=C/c1cccc(Cl)c1)c1cc2ccccc2oc1=O [Compound 3p, (E)-3-[3-(3-chlorophenyl)acryloyl]-2H-chromen-2-one] | 52.6 ± 2.45 µM | 
16 |  | O=C(/C=C/c1ccc(Cl)cc1)c1cc2ccccc2oc1=O [Compound 3q, (E)-3-[3-(4-chlorophenyl)acryloyl]-2H-chromen-2-one] | 29.7 ± 2.68 µM | Ki [2]: 16.1 µM; Inhibition mechanism (inhibition type) [2]: mixed-type inhibition; KIS ([2]; inhibition constant): 20.34 µM; Reversibility of inhibition [2]: reversible
17 |  | O=C(/C=C/c1ccccc1Br)c1cc2ccccc2oc1=O [Compound 3r, (E)-3-[3-(2-bromophenyl)acryloyl]-2H-chromen-2-one] | 38.6 ± 1.87 µM | 
18 |  | O=C(/C=C/c1cccc(Br)c1)c1cc2ccccc2oc1=O [Compound 3s, (E)-3-[3-(3-bromophenyl)acryloyl]-2H-chromen-2-one] | 35.6 ± 2.18 µM | 
19 |  | O=C(/C=C/c1ccc(Br)cc1)c1cc2ccccc2oc1=O [Compound 3t, (E)-3-[3-(4-bromophenyl)acryloyl]-2H-chromen-2-one] | 24.1 ± 2.36 µM | Ki [2]: 11 µM; Inhibition mechanism (inhibition type) [2]: mixed-type inhibition; Reversibility of inhibition [2]: reversible
20 | 109 ± 2.69 µM | O=C(/C=C/c1cccs1)c1cc2ccccc2oc1=O [Compound 3u, (E)-3-[3-(thiophen-2-yl)acryloyl]-2H-chromen-2-one] |  | 
21 | 103 ± 1.45 µM | O=C(/C=C/c1cc2ccccc2[nH]1)c1cc2ccccc2oc1=O [Compound 3v, (E)-3-[3-( ^ 1 H-indol-2-yl)acryloyl]-2H-chromen-2-one] |  | 

Row | Compound | IC50 [1, 3] | IC50 [1] | other results
22 | O=C(/C=C/c1ccc(F)cc1F)c1cc2ccccc2oc1=O [Compound 3j, (E)-3-[3-(2,4-difluorophenyl)acryloyl]-2H-chromen-2-one] | 30.3 ± 2.53 µM |  | Inhibition mechanism (inhibition type) [2]: mixed-type inhibition; KIS ([2]; inhibition constant): 25.94 µM; Ki ([2]; inhibition constant, free enzyme, secondary plot of slope vs. compound concentration, read-out: KI): 19.5 µM; Reversibility of inhibition [2]: reversible
